Assay results taken from ChEMBL document CHEMBL3885861, “Open TG-GATES”.

Organism: Rattus norvegicus
Experiment: Open TG-GATES - Regimen: Daily Repeat
Type: toxicity, organism-based, Sprague-Dawley
Design: regimen Daily Repeat, gender Male, age 6 weeks
Settings: in vivo, po, route gavage; for KIDNEY_L / KIDNEY_TOTAL / KIDNEY_R: tissue Kidney; for LIVER: tissue Liver
[1] = 3 mg/kg, 72 h, dose level Middle, time 3 day
[2] = 3 mg/kg, 72 h, tissue Blood, dose level Middle, time 3 day
[3] = 3 mg/kg, 72 h, tissue Plasma, dose level Middle, time 3 day
[4] = 3 mg/kg, […], dose level Middle, time 28 day
[5] = 3 mg/kg, […], tissue Blood, dose level Middle, time 14 day
[6] = 3 mg/kg, […], tissue Blood, dose level Middle, time 28 day
[7] = 3 mg/kg, […], tissue Plasma, dose level Middle, time 14 day
[8] = 3 mg/kg, […], tissue Plasma, dose level Middle, time 28 day
[9] = 10 mg/kg, 72 h, dose level High, time 3 day
[10] = 10 mg/kg, 72 h, tissue Blood, dose level High, time 3 day
[11] = 10 mg/kg, 72 h, tissue Plasma, dose level High, time 3 day
[12] = 10 mg/kg, […], dose level High, time 14 day
[13] = 10 mg/kg, […], dose level High, time 28 day
[14] = 10 mg/kg, […], tissue Blood, dose level High, time 14 day
[15] = 10 mg/kg, […], tissue Blood, dose level High, time 28 day
[16] = 10 mg/kg, […], tissue Plasma, dose level High, time 14 day
[17] = 10 mg/kg, […], tissue Plasma, dose level High, time 28 day

O=C(O)Cc1ccccc1Nc1c(Cl)cccc1Cl [DICLOFENAC]
TERMINAL_BW [1]: 236.5 g
Bas [2]: 0%
Eos [2]: 1%
Fbg [2]: 214.8 mg/dL
Lym [2]: 79.8%
MCH [2]: 21.5 pg
Plat [2]: 125.2 x10_4/uL
RBC [2]: 641.4 x10_4/ul
WBC [2]: 112.9 x10_2/uL
KIDNEY_L [1]: 1 g
KIDNEY_TOTAL [1]: 2.1 g
LIVER [1]: 11.2 g
ALP [3]: 1064.8 IU/L
ALT [3]: 39.2 IU/L
AST [3]: 69.2 IU/L
CRE [3]: 0.3 mg/dL
DBIL [3]: 0.1 mg/dL
GLC [3]: 194.8 mg/dL
IP [3]: 7.1 mg/dL
LDH [3]: 186 IU/L
PL [3]: 170.8 mg/dL
RALB [3]: 3.4 g/dL
TBIL [3]: 0.2 mg/dL
TC [3]: 84.2 mg/dL
TG [3]: 122 mg/dL
gamma-GTP [3]: 1.2 IU/L
TERMINAL_BW (3 mg/kg, […], dose level Middle, time 14 day): 309.6 g
TERMINAL_BW [4]: 391.3 g
Bas [5]: 0%
Eos [5]: 1%
Fbg [5]: 226 mg/dL
MCH [5]: 20.8 pg
MCHC [5]: 35.6%
MCV [5]: 58.4 fL
Neu [5]: 14.2%
Plat [5]: 116.2 x10_4/uL
RBC [5]: 705.4 x10_4/ul
Ret [5]: 3.5%
WBC [5]: 117.1 x10_2/uL
Bas [6]: 0%
Eos [6]: 1%
Fbg [6]: 216.2 mg/dL
Lym [6]: 83.2%
MCH [6]: 20 pg
MCHC [6]: 36.1%
MCV [6]: 55.4 fL
Plat [6]: 110.4 x10_4/uL
RBC [6]: 789.2 x10_4/ul
Ret [6]: 2.2%
WBC [6]: 97.8 x10_2/uL
KIDNEY_L [4]: 1.4 g
KIDNEY_R [4]: 1.4 g
KIDNEY_TOTAL [4]: 2.8 g
LIVER [4]: 15.1 g
ALP [7]: 835 IU/L
ALT [7]: 35 IU/L
AST [7]: 70.8 IU/L
CRE [7]: 0.4 mg/dL
GLC [7]: 224.2 mg/dL
IP [7]: 7.6 mg/dL
K [7]: 3.5 meq/L
LDH [7]: 198.8 IU/L
PL [7]: 151.2 mg/dL
RALB [7]: 3.3 g/dL
TBIL [7]: 0.1 mg/dL
TC [7]: 71.8 mg/dL
TG [7]: 135.8 mg/dL
gamma-GTP [7]: 0.8 IU/L
ALP [8]: 618.6 IU/L
AST [8]: 61 IU/L
CRE [8]: 0.5 mg/dL
Ca [8]: 10.3 mg/dL
DBIL [8]: 0.086 mg/dL
GLC [8]: 221.2 mg/dL
IP [8]: 7.1 mg/dL
K [8]: 3.6 meq/L
LDH [8]: 177 IU/L
Na [8]: 140.8 meq/L
PL [8]: 130.2 mg/dL
RALB [8]: 3.4 g/dL
TBIL [8]: 0.1 mg/dL
TC [8]: 60 mg/dL
TP [8]: 6.2 g/dL
gamma-GTP [8]: 0.6 IU/L
TERMINAL_BW [9]: 234.4 g
Bas [10]: 0%
Eos [10]: 1%
Fbg [10]: 231.8 mg/dL
MCH [10]: 22 pg
MCV [10]: 63.1 fL
Neu [10]: 22.4%
Plat [10]: 128.5 x10_4/uL
RBC [10]: 591.2 x10_4/ul
Ret [10]: 4.9%
WBC [10]: 114.7 x10_2/uL
KIDNEY_L [9]: 1 g
KIDNEY_R [9]: 1 g
KIDNEY_TOTAL [9]: 2 g
LIVER [9]: 11 g
ALP [11]: 912.8 IU/L
ALT [11]: 35.6 IU/L
AST [11]: 65.2 IU/L
CRE [11]: 0.4 mg/dL
DBIL [11]: 0.1 mg/dL
GLC [11]: 186.6 mg/dL
IP [11]: 7 mg/dL
LDH [11]: 196.8 IU/L
Na [11]: 141.6 meq/L
PL [11]: 156.8 mg/dL
RALB [11]: 3.3 g/dL
TBIL [11]: 0.2 mg/dL
TC [11]: 77.8 mg/dL
TG [11]: 107.6 mg/dL
TP [11]: 5.6 g/dL
gamma-GTP [11]: 0.4 IU/L
TERMINAL_BW [12]: 295.1 g
TERMINAL_BW [13]: 341.6 g
Bas [14]: 0%
Eos [14]: 1.4%
Fbg [14]: 278.8 mg/dL
Lym [14]: 64%
MCH [14]: 21.5 pg
MCHC [14]: 34%
Mono [14]: 4.4%
Neu [14]: 29%
Plat [14]: 157.6 x10_4/uL
RBC [14]: 593.2 x10_4/ul
Ret [14]: 12%
WBC [14]: 192.8 x10_2/uL
Bas [15]: 0%
Eos [15]: 1%
Fbg [15]: 282.4 mg/dL
Lym [15]: 61.6%
MCH [15]: 20.3 pg
MCHC [15]: 32.7%
Neu [15]: 33%
Plat [15]: 164.9 x10_4/uL
RBC [15]: 584.4 x10_4/ul
WBC [15]: 199.6 x10_2/uL
KIDNEY_L [13]: 1.3 g
KIDNEY_R [13]: 1.3 g
KIDNEY_TOTAL [13]: 2.6 g
LIVER [12]: 13 g
ALP [16]: 513.4 IU/L
ALT [16]: 26.4 IU/L
AST [16]: 60.4 IU/L
CRE [16]: 0.4 mg/dL
GLC [16]: 191.8 mg/dL
IP [16]: 7.6 mg/dL
K [16]: 3.9 meq/L
LDH [16]: 213 IU/L
PL [16]: 162.6 mg/dL
RALB [16]: 3 g/dL
TBIL [16]: 0.1 mg/dL
TC [16]: 78.4 mg/dL
TG [16]: 132.2 mg/dL
TP [16]: 5.4 g/dL
gamma-GTP [16]: 0.8 IU/L
ALP [17]: 538.6 IU/L
ALT [17]: 25.6 IU/L
AST [17]: 55.2 IU/L
CRE [17]: 0.4 mg/dL
Cl [17]: 104.8 meq/L
DBIL [17]: 0.07 mg/dL
GLC [17]: 191.4 mg/dL
IP [17]: 7.1 mg/dL
K [17]: 3.9 meq/L
LDH [17]: 226 IU/L
Na [17]: 140.8 meq/L
PL [17]: 146 mg/dL
RALB [17]: 2.7 g/dL
TBIL [17]: 0.1 mg/dL
TC [17]: 68.2 mg/dL
TG [17]: 123.2 mg/dL
TP [17]: 5.3 g/dL
gamma-GTP [17]: 0.8 IU/L
